Tests used:
Assay type in all cases: cell-based
[1] = system: MCF7 cells (ATCC #HTB-22); experiment: Cellular growth inhibition assay, MCF7 cells purchased from ATCC; conditions: Homo sapiens, MCF7, 144 h, Table 8-A; MCF7 cells purchased from ATCC; six days; CellTiter-Glo; read-out: GI50
Outline: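 GI50 values come from a four-parameter fit of CellTiter-Glo 2.0 luminescence after six days of compound exposure at 37° C. Seeding density depended on the source: 225 cells/well for ECACC MCF7, 1,500 for ATCC. Medium was RPMI 1640 with 10% FBS and 0.2 U/ml insulin.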

[2] = system: T-Rex 293 cells having increased expression of estrogen receptor alpha protein; experiment: Cellular growth inhibition assay, T-Rex 293 cells, (+) doxycycline; conditions: T-REx-293, 72 h, Table 7-A; T-Rex 293 cells with doxycycline (increased ERα expression); 72 hours; CellTiter-Glo; read-out: (+) Dox GI50
Outline: (§1)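 Growth of a doxycycline-inducible ERα T-Rex 293 clone, induced or not with 3 ng/mL doxycycline, was followed for 72 h with test compound in hormone-depleted medium. CellTiter-Glo luminescence gave GI50.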

[3] = system: T-Rex 293 cells lacking increased expression of estrogen receptor alpha protein; experiment: Cellular growth inhibition assay, T-Rex 293 cells, (−) doxycycline; conditions: T-REx-293, 72 h, Table 7-A; T-Rex 293 cells without doxycycline (lacking increased ERα expression); 72 hours; CellTiter-Glo; read-out: (−) Dox GI50
Outline: as §1

Row | GI50 [1] | SMILES | GI50 [2] | GI50 [3]
1 | 50 to 500 nM | Cc1sc2c(c1C)C(c1ccc(N3CCC(O)(CN4CCN(c5ccc([C@@H]6c7ccc(O)cc7CC[C@@H]6c6ccc(F)c(F)c6)c(F)c5)CC4)CC3)cc1)=N[C@@H](C)c1nnc(C)n1-2 [III-270] | < 50 nM | 500 to 2500 nM
2 | 50 to 500 nM | Cc1sc2c(c1C)C(c1ccc(N3CCC(O)(CN4CCN(c5ccc([C@H]6c7ccc(O)cc7CC[C@H]6c6cccc(F)c6F)c(F)c5)CC4)CC3)cc1)=N[C@@H](C)c1nnc(C)n1-2 [III-271] | 50 to 500 nM | 50 to 500 nM
3 | < 50 nM | Cc1sc2c(c1C)C(c1ccc(N3CCC(O)(CN4CCN(c5ccc([C@@H]6c7ccc(O)cc7CC[C@@H]6c6cccc(F)c6F)c(F)c5)CC4)CC3)cc1)=N[C@@H](C)c1nnc(C)n1-2 [III-272] | < 50 nM | 500 to 2500 nM
4 | 50 to 500 nM | Cc1sc2c(c1C)C(c1ccc(N3CCC(O)(CN4CCN(c5ccc([C@H]6c7ccc(O)cc7CC[C@H]6c6cc(F)ccc6F)c(F)c5)CC4)CC3)cc1)=N[C@@H](C)c1nnc(C)n1-2 [III-273] | 50 to 500 nM | 50 to 500 nM
5 | < 50 nM | Cc1sc2c(c1C)C(c1ccc(N3CCC(O)(CN4CCN(c5ccc([C@@H]6c7ccc(O)cc7CC[C@@H]6c6cc(F)ccc6F)c(F)c5)CC4)CC3)cc1)=N[C@@H](C)c1nnc(C)n1-2 [III-274] | < 50 nM | 500 to 2500 nM
6 | < 50 nM | Cc1sc2c(c1C)C(c1ccc(N3CC4(CC(CN5CCN(c6cc(F)c([C@@H]7c8ccc(O)cc8CC[C@@H]7c7ccccc7)c(F)c6)CC5)C4)C3)cc1)=N[C@@H](C)c1nnc(C)n1-2 [III-277] | < 50 nM | 500 to 2500 nM
7 | 50 to 500 nM | Cc1sc2c(c1C)C(c1ccc(N3CC4(CC(CN5CCN(c6cc(F)c([C@H]7c8ccc(O)cc8CC[C@H]7c7ccccc7)c(F)c6)CC5)C4)C3)cc1)=N[C@@H](C)c1nnc(C)n1-2 [III-278] | 50 to 500 nM | 500 to 2500 nM
8 | < 50 nM | Cc1sc2c(c1C)C(c1ccc(N3CC4(C3)CC(O)(CN3CCN(c5cc(F)c([C@@H]6c7ccc(O)cc7CC[C@@H]6c6ccc(F)cc6)c(F)c5)CC3)C4)cc1)=N[C@@H](C)c1nnc(C)n1-2 [III-279] | < 50 nM | 500 to 2500 nM
9 | 50 to 500 nM | Cc1sc2c(c1C)C(c1ccc(N3CC4(C3)CC(O)(CN3CCN(c5cc(F)c([C@H]6c7ccc(O)cc7CC[C@H]6c6ccc(F)cc6)c(F)c5)CC3)C4)cc1)=N[C@@H](C)c1nnc(C)n1-2 [III-280] | 50 to 500 nM | 500 to 2500 nM
10 | 500 to 2500 nM | Cc1sc2c(c1C)C(c1ccc(N3CC4(CC(CN5CCN(c6ccc([C@H]7c8ccc(O)cc8CC[C@H]7c7ccc(F)cc7)cc6F)CC5)C4)C3)cc1)=N[C@@H](C)c1nnc(C)n1-2 [III-281] | 50 to 500 nM | 500 to 2500 nM
11 | < 50 nM | Cc1sc2c(c1C)C(c1ccc(N3CC4(CC(CN5CCN(c6ccc([C@@H]7c8ccc(O)cc8CC[C@@H]7c7ccc(F)cc7)cc6F)CC5)C4)C3)cc1)=N[C@@H](C)c1nnc(C)n1-2 [III-282] | < 50 nM | 50 to 500 nM
12 | 50 to 500 nM | Cc1cc([C@H]2c3ccc(O)cc3CC[C@H]2c2ccc(F)cc2)ccc1N1CCN(CC2(O)CCN(c3ccc(C4=N[C@@H](C)c5nnc(C)n5-c5sc(C)c(C)c54)cc3)CC2)CC1 [III-283] | 50 to 500 nM | 500 to 2500 nM
13 | 50 to 500 nM | Cc1cc([C@@H]2c3ccc(O)cc3CC[C@@H]2c2ccc(F)cc2)ccc1N1CCN(CC2(O)CCN(c3ccc(C4=N[C@@H](C)c5nnc(C)n5-c5sc(C)c(C)c54)cc3)CC2)CC1 [III-284] | 50 to 500 nM | 500 to 2500 nM
14 | 50 to 500 nM | Cc1cc(N2CCN(CC3(O)CCN(c4ccc(C5=N[C@@H](C)c6nnc(C)n6-c6sc(C)c(C)c65)cc4)CC3)CC2)c(F)cc1[C@H]1c2ccc(O)cc2CC[C@H]1c1ccccc1 [III-285] | 50 to 500 nM | 50 to 500 nM
15 | < 50 nM | Cc1cc(N2CCN(CC3(O)CCN(c4ccc(C5=N[C@@H](C)c6nnc(C)n6-c6sc(C)c(C)c65)cc4)CC3)CC2)c(F)cc1[C@@H]1c2ccc(O)cc2CC[C@@H]1c1ccccc1 [III-286] | < 50 nM | 500 to 2500 nM
16 | 50 to 500 nM | Cc1cc([C@@H]2c3ccc(O)cc3CC[C@@H]2c2ccccc2)c(F)cc1N1CCN(CC2(O)CCN(c3ccc(C4=N[C@@H](C)c5nnc(C)n5-c5sc(C)c(C)c54)cc3)CC2)CC1 [III-287] | < 50 nM | 500 to 2500 nM
17 | 50 to 500 nM | Cc1cc([C@H]2c3ccc(O)cc3CC[C@H]2c2ccccc2)c(F)cc1N1CCN(CC2(O)CCN(c3ccc(C4=N[C@@H](C)c5nnc(C)n5-c5sc(C)c(C)c54)cc3)CC2)CC1 [III-288] | 50 to 500 nM | 500 to 2500 nM

Row | GI50 [1] | SMILES | GI50 [2] | GI50 [3]
18 | < 50 nM | Cc1sc2c(c1C)C(c1ccc(N3CCC(O)(CN4CCN(c5ccc([C@@H]6c7ccc(O)cc7CC[C@@H]6c6cccc(F)c6)c(F)c5)CC4)CC3)cc1)=N[C@@H](C)c1nnc(C)n1-2 [III-289] | < 50 nM | 500 to 2500 nM
19 | 50 to 500 nM | Cc1sc2c(c1C)C(c1ccc(N3CCC(O)(CN4CCN(c5ccc([C@H]6c7ccc(O)cc7CC[C@H]6c6cccc(F)c6)c(F)c5)CC4)CC3)cc1)=N[C@@H](C)c1nnc(C)n1-2 [III-290] | < 50 nM | 50 to 500 nM
20 | < 50 nM | Cc1sc2c(c1C)C(c1ccc(N3CCC(O)(CN4CCN(c5ccc([C@@H]6c7ccc(O)cc7CC[C@@H]6c6ccccc6F)c(F)c5)CC4)CC3)cc1)=N[C@@H](C)c1nnc(C)n1-2 [III-291] | < 50 nM | 500 to 2500 nM
21 | 50 to 500 nM | Cc1sc2c(c1C)C(c1ccc(N3CCC(O)(CN4CCN(c5ccc([C@H]6c7ccc(O)cc7CC[C@H]6c6ccccc6F)c(F)c5)CC4)CC3)cc1)=N[C@@H](C)c1nnc(C)n1-2 [III-292] | 50 to 500 nM | 50 to 500 nM
22 | < 50 nM | Cc1sc2c(c1C)C(c1ccc(N3CCC(O)(CN4CCN(c5ccc([C@@H]6c7ccc(O)cc7CC[C@@H]6c6c(F)cccc6F)c(F)c5)CC4)CC3)cc1)=N[C@@H](C)c1nnc(C)n1-2 [III-293] | < 50 nM | 500 to 2500 nM
23 | 50 to 500 nM | Cc1sc2c(c1C)C(c1ccc(N3CCC(O)(CN4CCN(c5ccc([C@H]6c7ccc(O)cc7CC[C@H]6c6c(F)cccc6F)c(F)c5)CC4)CC3)cc1)=N[C@@H](C)c1nnc(C)n1-2 [III-294] | 50 to 500 nM | 50 to 500 nM
24 | 50 to 500 nM | Cc1sc2c(c1C)C(c1ccc(N3CC4(CC(CN5CCN(c6cc(F)c([C@H]7c8ccc(O)cc8CC[C@H]7c7ccc(F)cc7)c(F)c6)CC5)C4)C3)cc1)=N[C@@H](C)c1nnc(C)n1-2 [III-295] | 500 to 2500 nM | 500 to 2500 nM
25 | 50 to 500 nM | Cc1sc2c(c1C)C(c1ccc(N3CC4(CC(CN5CCN(c6cc(F)c([C@@H]7c8ccc(O)cc8CC[C@@H]7c7ccc(F)cc7)c(F)c6)CC5)C4)C3)cc1)=N[C@@H](C)c1nnc(C)n1-2 [III-296] | 50 to 500 nM | 500 to 2500 nM
26 | 50 to 500 nM | Cc1cc(N2CCN(CC3(O)CCN(c4ccc(C5=N[C@@H](C)c6nnc(C)n6-c6sc(C)c(C)c65)cc4)CC3)CC2)ccc1[C@H]1c2ccc(O)cc2CC[C@H]1c1ccc(F)cc1 [III-297] | 50 to 500 nM | 50 to 500 nM
27 | 50 to 500 nM | Cc1cc(N2CCN(CC3(O)CCN(c4ccc(C5=N[C@@H](C)c6nnc(C)n6-c6sc(C)c(C)c65)cc4)CC3)CC2)ccc1[C@@H]1c2ccc(O)cc2CC[C@@H]1c1ccc(F)cc1 [III-298] | 50 to 500 nM | 50 to 500 nM
28 | < 50 nM | Cc1sc2c(c1C)C(c1ccc(N3CCC(O)(CN4CCN(c5cc(F)c([C@@H]6c7ccc(O)cc7CC[C@@H]6c6ccccc6)cc5F)CC4)CC3)cc1)=N[C@@H](Cc1ncco1)c1nnc(C)n1-2 [III-299] | < 50 nM | 50 to 500 nM
29 | 50 to 500 nM | Cc1sc2c(c1C)C(c1ccc(N3CCC(O)(CN4CCN(c5cc(F)c([C@H]6c7ccc(O)cc7CC[C@H]6c6ccccc6)cc5F)CC4)CC3)cc1)=N[C@@H](Cc1ncco1)c1nnc(C)n1-2 [III-300] | < 50 nM | 50 to 500 nM
30 | 50 to 500 nM | Cc1sc2c(c1C)C(c1ccc(N3CCC(O)(CN4CCN(c5ccc([C@H]6c7ccc(O)cc7CC[C@H]6c6ccc(F)cc6)cc5Cl)CC4)CC3)cc1)=N[C@@H](C)c1nnc(C)n1-2 [III-301] | 500 to 2500 nM | 500 to 2500 nM
31 | 50 to 500 nM | Cc1sc2c(c1C)C(c1ccc(N3CCC(O)(CN4CCN(c5ccc([C@@H]6c7ccc(O)cc7CC[C@@H]6c6ccc(F)cc6)cc5Cl)CC4)CC3)cc1)=N[C@@H](C)c1nnc(C)n1-2 [III-302] | 50 to 500 nM | 500 to 2500 nM
32 | 50 to 500 nM | Cc1sc2c(c1C)C(c1ccc(N3CCC(O)(CN4CCN(c5cc(F)c([C@H]6c7ccc(O)cc7CC[C@H]6c6ccccc6)cc5F)CC4)CC3)cc1F)=N[C@@H](C)c1nnc(C)n1-2 [III-303] | 50 to 500 nM | 50 to 500 nM
33 | < 50 nM | Cc1sc2c(c1C)C(c1ccc(N3CCC(O)(CN4CCN(c5cc(F)c([C@@H]6c7ccc(O)cc7CC[C@@H]6c6ccccc6)cc5F)CC4)CC3)cc1F)=N[C@@H](C)c1nnc(C)n1-2 [III-304] | < 50 nM | 500 to 2500 nM
34 | < 50 nM | Cc1sc2c(c1C)C(c1ccc(N3CCC(O)(CN4CCN(c5ccc([C@@H]6c7ccc(O)cc7CC[C@@H]6c6ccc(F)cc6)c(Cl)c5)CC4)CC3)cc1)=N[C@@H](C)c1nnc(C)n1-2 [III-305] | < 50 nM | 500 to 2500 nM

Reference: patent publication US12558428B2, “Heterobifunctional compounds and their use in treating disease” (Halda Therapeutics OpCo, Inc., priority 2024, dated 2026)
